Data: patent US6472348B1, “Pyridone derivatives and herbicides” (Kumiai Chemical Industry Co., Ltd., priority 1996, dated 2002)

Experiments:
[1] = system: barnyardgrass (Ec); assay: Test Example 1: herbicidal effects by paddy field soil treatment; type: in vivo; details: 100 g of the active ingredient per 10 ares, 21st day after the application, index 0-5 of Table 47;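 also: grade of growth control; 5 = at least 90%; 4 = 70 to 90%; 3 = 50 to 70%; 2 = 30 to 50%; 1 = 10 to 30%; 0 = under 10%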
Outline: (§1)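 Greenhouse pot test in flooded paddy soil, dosed at 100 g a.i. per 10 ares; effect scored on day 21.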

[2] = system: bulrush (Sc); assay: as above; type: in vivo; details: 100 g of the active ingredient per 10 ares, 21st day after the application, index 0-5 of Table 47;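 also: grade of growth control; 5 = at least 90%; 4 = 70 to 90%; 3 = 50 to 70%; 2 = 30 to 50%; 1 = 10 to 30%; 0 = under 10%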
Outline: as §1

[3] = system: monochoria (Mo); assay: as above; type: in vivo; details: 100 g of the active ingredient per 10 ares, 21st day after the application, index 0-5 of Table 47;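 also: grade of growth control; 5 = at least 90%; 4 = 70 to 90%; 3 = 50 to 70%; 2 = 30 to 50%; 1 = 10 to 30%; 0 = under 10%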
Outline: as §1

[4] = system: Digitaria ciliaris (Di); assay: Test Example 2: herbicidal effects by upland field soil treatment; type: in vivo; details: 100 g of the active ingredient per 10 ares;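 also: grade of growth control; 5 = at least 90%; 4 = 70 to 90%; 3 = 50 to 70%; 2 = 30 to 50%; 1 = 10 to 30%; 0 = under 10%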
Source text: (§2) (Test on Herbicidal Effects by Upland Field Soil Treatment)

[5] = system: barnyardgrass (Ec); assay: as above; type: in vivo; details: 100 g of the active ingredient per 10 ares
Source text: as §2

[6] = system: common lambsquarters (Ch); assay: as above; type: in vivo; details: 100 g of the active ingredient per 10 ares
Source text: as §2

[7] = system: pale smartweed (Po); assay: as above; type: in vivo; details: 100 g of the active ingredient per 10 ares
Source text: as §2

[8] = system: rice flatsedge (Ci); assay: as above; type: in vivo; details: 100 g of the active ingredient per 10 ares
Source text: as §2

[9] = system: slender amaranth (Am); assay: as above; type: in vivo; details: 100 g of the active ingredient per 10 ares
Source text: as §2

[10] = system: Diaitaria ciliaris (Di); assay: Test Example 3: herbicidal effects by upland field foliage treatment; type: in vivo; parameters: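 grade of growth control; 5 = at least 90%; 4 = 70 to 90%; 3 = 50 to 70%; 2 = 30 to 50%; 1 = 10 to 30%; 0 = under 10%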
Outline: (§3)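 Scoring used a standard effect scale on the 14th day post-treatment, with plants held in a greenhouse throughout. Foliar application was made to weeds raised from seed in sand-filled pots for 2 weeks.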

[11] = system: barnyardgrass (Ec); assay: as above; type: in vivo; parameters: scale not given here
Outline: as §3

[12] = system: common lambsquarters (Ch); assay: as above; type: in vivo; parameters: scale not given here
Outline: as §3

[13] = system: pale smartweed (Po); assay: as above; type: in vivo; parameters: scale not given here
Outline: as §3

[14] = system: rice flatsedge (Ci); assay: as above; type: in vivo; parameters: scale not given here
Outline: as §3

[15] = system: slender amaranth (Am); assay: as above; type: in vivo; parameters: scale not given here
Outline: as §3

[16] = system: cotton (Go); assay: Test Example 4: crop plant selectivity by upland field soil treatment (cotton), phytotoxicity; type: in vivo; parameters: scale not given here; details: dose 6.3 g ai/10 a, evaluated 21st day after application
Outline: (§4)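 Upland soil-treatment selectivity test: scoring on day 21 post-application in a greenhouse, rating crop phytotoxicity on cotton and herbicidal effect on co-sown weeds. Seeds were sown in sand-filled pots and covered with soil before treatment.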

[17] = system: China jute (Ab); assay: Test Example 4: crop plant selectivity by upland field soil treatment (cotton), herbicidal effects; type: in vivo; parameters: scale not given here; details: dose 6.3 g ai/10 a, evaluated 21st day after application
Outline: as §4

[18] = system: common lambsquarters (Ch); assay: as above; type: in vivo; parameters: scale not given here; details: dose 6.3 g ai/10 a, evaluated 21st day after application
Outline: as §4

[19] = system: green foxtail (Se); assay: as above; type: in vivo; parameters: scale not given here; details: dose 6.3 g ai/10 a, evaluated 21st day after application
Outline: as §4

[20] = system: pale smartweed (Po); assay: as above; type: in vivo; parameters: scale not given here; details: dose 6.3 g ai/10 a, evaluated 21st day after application
Outline: as §4

[21] = system: slender amaranth (Am); assay: as above; type: in vivo; parameters: scale not given here; details: dose 6.3 g ai/10 a, evaluated 21st day after application
Outline: as §4

[22] = system: wheat (Tr); assay: Test Example 5: crop plant selectivity by upland field soil treatment (wheat), phytotoxicity; type: in vivo; parameters: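 grade of crop injury; 5 = at least 90%; 4 = 70 to 90%; 3 = 50 to 70%; 2 = 30 to 50%; 1 = 10 to 30%; 0 = under 10%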; details: dose 6.3 g ai/10a, 21st day after application
Outline: (§5)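 A greenhouse pot test in which wheat and weeds share sand-filled pots; after the soil application, damage is graded against set standards three weeks later.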

[23] = system: China jute (Ab); assay: Test Example 5: crop plant selectivity by upland field soil treatment (wheat), herbicidal effects; type: in vivo; parameters: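 grade of growth control; 5 = at least 90%; 4 = 70 to 90%; 3 = 50 to 70%; 2 = 30 to 50%; 1 = 10 to 30%; 0 = under 10%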; details: dose 6.3 g ai/10a, 21st day after application
Outline: as §5

[24] = system: common lambsquarters (Ch); assay: as above; type: in vivo; parameters: scale not given here; details: dose 6.3 g ai/10a, 21st day after application
Outline: as §5

[25] = system: green foxtail (Se); assay: as above; type: in vivo; parameters: scale not given here; details: dose 6.3 g ai/10a, 21st day after application
Outline: as §5

[26] = system: pale smartweed (Po); assay: as above; type: in vivo; parameters: scale not given here; details: dose 6.3 g ai/10a, 21st day after application
Outline: as §5

[27] = system: slender amaranth (Am); assay: as above; type: in vivo; parameters: scale not given here; details: dose 6.3 g ai/10a, 21st day after application
Outline: as §5

[28] = system: soybean (Gl); assay: Test Example 6: crop plant selectivity by upland field soil treatment (soybean), phytotoxicity; type: in vivo; parameters: scale not given here; details: dose 6.3 g ai/10a, 21st day after application
Outline: (§6)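 Pre-emergence soil treatment; sand-filled pots, seeds sown then soil-covered; greenhouse culture; visual rating of weed control and soybean injury on day 21 post-application per standard scale.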

[29] = system: China jute (Ab); assay: Test Example 6: crop plant selectivity by upland field soil treatment (soybean), herbicidal effects; type: in vivo; parameters: scale not given here; details: dose 6.3 g ai/10a, 21st day after application
Outline: as §6

[30] = system: common lambsquarters (Ch); assay: as above; type: in vivo; parameters: scale not given here; details: dose 6.3 g ai/10a, 21st day after application
Outline: as §6

[31] = system: green foxtail (Se); assay: as above; type: in vivo; parameters: scale not given here; details: dose 6.3 g ai/10a, 21st day after application
Outline: as §6

[32] = system: pale smartweed (Po); assay: as above; type: in vivo; parameters: scale not given here; details: dose 6.3 g ai/10a, 21st day after application
Outline: as §6

[33] = system: slender amaranth (Am); assay: as above; type: in vivo; parameters: scale not given here; details: dose 6.3 g ai/10a, 21st day after application
Outline: as §6

[34] = system: corn (Ze); assay: Test Example 7: crop plant selectivity by upland field soil treatment (corn), phytotoxicity; type: in vivo; parameters: scale not given here; details: dose 6.3 g ai/10a, 21st day after application
Outline: (§7)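 Scoring of weed kill and corn injury was done on day 21 after the application, using defined standards. Before that, sown seeds in sand-filled pots were covered with soil, treated, and grown in a greenhouse.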

[35] = system: China jute (Ab); assay: Test Example 7: crop plant selectivity by upland field soil treatment (corn), herbicidal effects; type: in vivo; parameters: scale not given here; details: dose 6.3 g ai/10a, 21st day after application
Outline: as §7

[36] = system: common lambsquarters (Ch); assay: as above; type: in vivo; parameters: scale not given here; details: dose 6.3 g ai/10a, 21st day after application
Outline: as §7

[37] = system: green foxtail (Se); assay: as above; type: in vivo; parameters: scale not given here; details: dose 6.3 g ai/10a, 21st day after application
Outline: as §7

[38] = system: pale smartweed (Po); assay: as above; type: in vivo; parameters: scale not given here; details: dose 6.3 g ai/10a, 21st day after application
Outline: as §7

[39] = system: slender amaranth (Am); assay: as above; type: in vivo; parameters: scale not given here; details: dose 6.3 g ai/10a, 21st day after application
Outline: as §7

[40] = system: corn (Ze); assay: Test Example 11: crop plant selectivity by upland field foliage treatment (corn), phytotoxicity; details: upland field foliage treatment, dose 1.6 g ai/10a, 14th day after treatment
Outline: (§8)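 Corn and the weed species were sown together in sand-filled pots and grown in a greenhouse for 2 weeks before foliar treatment. Herbicidal effect was scored on day 14 after treatment against a graded standard scale, with corn phytotoxicity scored alongside.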

[41] = system: China jute (Ab); assay: Test Example 11: crop plant selectivity by upland field foliage treatment (corn), herbicidal effects; type: in vivo; parameters: scale not given here; details: upland field foliage treatment (corn test), dose 1.6 g ai/10a, 14th day after treatment
Outline: as §8

[42] = system: common lambsquarters (Ch); assay: as above; type: in vivo; parameters: scale not given here; details: upland field foliage treatment (corn test), dose 1.6 g ai/10a, 14th day after treatment
Outline: as §8

[43] = system: pale smartweed (Po); assay: as above; type: in vivo; parameters: scale not given here; details: upland field foliage treatment (corn test), dose 1.6 g ai/10a, 14th day after treatment
Outline: as §8

[44] = system: slender amaranth (Am); assay: as above; type: in vivo; parameters: scale not given here; details: upland field foliage treatment (corn test), dose 1.6 g ai/10a, 14th day after treatment
Outline: as §8

[45] = 21st day after the application, index 0-5 of Table 47
[46] = 100 g of the active ingredient per 10 ares, evaluated on the 14th day after treatment
[47] = evaluated on the 21st day after application
[48] = 100 g active ingredient per 10 ares, evaluated 14th day after treatment

| SMILES | Herbicidal effects Ec [1] | Herbicidal effects Sc [2] | Herbicidal effects Mo [3] | Phytotoxicity Go [16] | Herbicidal effects Ab [17] | Herbicidal effects Ch [18] | Herbicidal effects Se [19] | Herbicidal effects Po [20] | Herbicidal effects Am [21] | Phytotoxicity Tr [22] | Herbicidal effects Ab [23] | Herbicidal effects Ch [24] | Herbicidal effects Se [25] | melting point [°C] | Herbicidal effects Di [4, 47] | Herbicidal effects Ec [5, 47] | Herbicidal effects Ch [6, 47] | Herbicidal effects Po [7, 47] | Herbicidal effects Ci [8, 47] | Herbicidal effects Am [9, 47] | also measured |
| --- | --- | --- | --- | --- | --- | --- | --- | --- | --- | --- | --- | --- | --- | --- | --- | --- | --- | --- | --- | --- | --- |
| CNS(=O)(=O)c1cc(-c2ccc(C(F)(F)F)n(C)c2=O)c(F)cc1Cl [Compound No. 1-71, 3-(4-chloro-2-fluoro-5-methylsulfamoylphenyl)-1-methyl-6-trifluoromethyl-2(1H)-pyridone] | 5 | 5 | 5 | 1 | 5 | 5 | 5 | 5 | 5 | 2 | 5 | 5 | 5 | 150 to 151 | – | – | – | – | – | – | Herbicidal effects Di [4, 45]: 5; Herbicidal effects Ec [5, 45]: 5; Herbicidal effects Ch [6, 45]: 5; Herbicidal effects Po [7, 45]: 5; Herbicidal effects Ci [8, 45]: 5; Herbicidal effects Am [9, 45]: 5; Herbicidal effects Di [10, 46]: 5; Herbicidal effects Ec [11, 46]: 5; Herbicidal effects Ch [12, 46]: 5; Herbicidal effects Po [13, 46]: 5; Herbicidal effects Ci [14, 46]: 5; Herbicidal effects Am [15, 46]: 5; Herbicidal effects Po [26]: 5; Herbicidal effects Am [27]: 5 |
| Cn1c(C(F)(F)F)ccc(-c2c(F)cc(Cl)c3oc(CBr)cc23)c1=O [Compound No. 4-7, 3-(2-bromomethyl-7-chloro-5-fluorobenzofuran-4-yl)-1-methyl-6-trifluoromethyl-2-(1H)-pyridone] | 5 | 5 | 5 | 1 | 5 | 5 | 5 | 5 | 5 | 1 | 5 | 5 | 5 | 142 to 144 | 5 | 5 | 5 | 5 | 5 | 5 | Herbicidal effects Di [10, 48]: 5; Herbicidal effects Ec [11, 48]: 5; Herbicidal effects Ch [12, 48]: 5; Herbicidal effects Po [13, 48]: 5; Herbicidal effects Ci [14, 48]: 5; Herbicidal effects Am [15, 48]: 5; Herbicidal effects Po [26]: 5; Herbicidal effects Am [27]: 5; Phytotoxicity Gl [28]: 1; Herbicidal effects Ab [29]: 5; Herbicidal effects Ch [30]: 5; Herbicidal effects Se [31]: 5; Herbicidal effects Po [32]: 5; Herbicidal effects Am [33]: 5; Phytotoxicity Ze [34]: 2; Herbicidal effects Ab [35]: 5; Herbicidal effects Ch [36]: 5; Herbicidal effects Se [37]: 5; Herbicidal effects Po [38]: 5; Herbicidal effects Am [39]: 5 |
| Cn1c(C(F)(F)F)ccc(-c2c(F)cc(Cl)c3oc(C(=O)O)cc23)c1=O [Compound No. 4-26, 3-(2-carboxy-7-chloro-5-fluorobenzofuran-4-yl)-1-methyl-6-trifluoromethyl-2-(1H)-pyridone] | 5 | 5 | 5 | – | – | – | – | – | – | – | – | – | – | 233 to 235 | 5 | 5 | 5 | 5 | 5 | 5 | Phytotoxicity Ze [40]: 1; Herbicidal effects Ab [41]: 5; Herbicidal effects Ch [42]: 5; Herbicidal effects Po [43]: 5; Herbicidal effects Am [44]: 5 |
| Cn1cc(-c2cc(OC3CCCC3)c(Cl)cc2F)c(=O)cc1C(F)(F)F [Compound No. 6-14, 5-(4-chloro-2-fluoro-5-cyclopentyloxyphenyl)-1-methyl-2-trifluoromethyl-4(1H)-pyridone] | 5 | 5 | 5 | – | – | – | – | – | – | – | – | – | – | 152 to 154 | 5 | 5 | 5 | 5 | 5 | 5 | Herbicidal effects Di [10, 48]: 5; Herbicidal effects Ec [11, 48]: 5; Herbicidal effects Ch [12, 48]: 5; Herbicidal effects Po [13, 48]: 5; Herbicidal effects Ci [14, 48]: 5; Herbicidal effects Am [15, 48]: 5 |
